Source: patent US20260234107A1, “TRYPTAMINES AND METHODS OF TREATING MOOD DISORDERS” (priority 2022, published 2026)
Read-outs that look alike come from different tables or passages of the source.

Key:
[1] = target: T1, 5-HT1A (Homo sapiens, UniProt P08908); test: FLIPR Ca2+ flux agonist assay at 5-HT1A; assay type: cell-based; conditions: for 5-HT1A % Act @ Max Dose: Ca2+ flux, CHO cells
T1 construct: host or cells: CHO cells
T1 sequence (P08908 1-422): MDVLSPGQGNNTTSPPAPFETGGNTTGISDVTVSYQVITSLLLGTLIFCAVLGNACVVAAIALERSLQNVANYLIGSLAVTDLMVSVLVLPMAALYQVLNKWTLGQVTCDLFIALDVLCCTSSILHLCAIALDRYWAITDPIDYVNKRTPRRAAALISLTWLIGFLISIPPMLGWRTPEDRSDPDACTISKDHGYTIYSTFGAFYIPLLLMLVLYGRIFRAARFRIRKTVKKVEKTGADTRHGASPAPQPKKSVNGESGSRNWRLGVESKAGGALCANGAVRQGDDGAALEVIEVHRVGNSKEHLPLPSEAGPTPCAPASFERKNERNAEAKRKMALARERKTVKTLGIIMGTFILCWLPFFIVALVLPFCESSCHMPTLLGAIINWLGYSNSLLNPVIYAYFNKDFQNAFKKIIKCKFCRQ
Description: (§1) A solution of 250 mM probenecid in 1 mL FLIPR assay buffer was prepared fresh. This was combined with a fluorescent dye (Fluo-4 Direct™) to make a final assay concentration of 2.5 mM. […] The fluorescent dye was then added to the assay plate along with assay buffer to a final volume of 40 μL. The cell plate was incubated for 50 min at 37° C. and 5% CO2 and placed into the FLIPR Tetra along with the compound plate. 10 μL of references and compounds were then transferred from the compound plate into the cell plate and the fluorescent signal was read.

[2] = target: 5-HT2A (Homo sapiens, UniProt P28223); test: FLIPR Ca2+ flux agonist assay at 5-HT2A; assay type: cell-based; set-up: host or cells: HEK293; conditions: for 5-HT2A % Act @ Max Dose: HEK293, max dose
Description: as §1

[3] = Metabolic stability in human liver microsomes (HLM); set-up: microsomal CLint / half-life: dose or concentration left out as unconfirmed; conditions: both, human, pooled human liver microsomes, pH 7.4
[4] = Stability in rat brain homogenate; assay type: in vitro ADME, male Sprague Dawley rats; conditions: rat brain homogenate, 1 μM, 37° C.; for half-life at 1 µM: male, Sprague Dawley
Description: Disclosed compounds were tested for stability in rat brain homogenate (Table 8). There was widely variable stability among the test compounds under the conditions of the experiment.
(§2) Rat Brain Homogenate Stability. Frozen rat brain homogenate (pooled from male Sprague Dawley rats, BioreclamationIVT, RAT00BRAINMZA) was thawed in a water bath at 37° C. immediately prior to use. Positive controls and test compounds (final concentration in incubation medium=1 μM for test compounds and 2 μM for controls, all with 2% DMSO) were incubated in duplicate for each time point (0, 10, 30, 60, and 120 min) in the rat brain homogenate at a total reaction volume of 100 μL at 37° C. At the end of each incubation period, reactions were immediately quenched with 400 μL of acetonitrile containing internal standard (200 ng/mL tolbutamine and 200 ng/mL labetalol) and mixed thoroughly. Plates were then sealed, shaken for 20 min, and centrifuged at 4,000 rpm and 4° C. for 20 min. Aliquots of 50 μL of each supernatant were diluted into 100 μL of water and the mixtures were then shaken again for 10 min.

[5] = system: monoamine oxidase A and B (MAO-A and MAO-B); test: Stability in the presence of monoamine oxidases (human liver mitochondria preparation); set-up: half-life / microsomal CLint: dose or concentration left out as unconfirmed; conditions: for Remaining (t = 60 min) / half-life / microsomal CLint: human liver mitochondria; for half-life / microsomal CLint: human, pH 7.4; for stability in the presence of MAO (in words): human liver mitochondria preparation
Description: Liver Mitochondria Incubations. Human liver mitochondria (Xenotech H0610.M) were used.

[6] = target: T2, 5-HT2B (Homo sapiens, UniProt P41595); test: FLIPR Ca2+ flux agonist assay at 5-HT2B; assay type: cell-based; conditions: for 5-HT2B % Act @ Max Dose: Ca2+ flux, HEK293, max dose
T2 construct: host or cells: HEK293
Description: as §1

[7] = Stability in mouse brain homogenate; assay type: in vitro ADME, male CD-1 mice; conditions: mouse brain homogenate, 1 μM, 37° C.; for half-life at 1 µM: male, CD-1
Description: Disclosed compounds were tested for stability in mouse brain homogenate (Table 7). There was widely variable stability among the test compounds under the conditions of the experiment.
as §2, with “Mouse Brain” for “Rat Brain”, “Frozen mouse” for “Frozen rat”, “male CD-1 mice,” for “male Sprague Dawley rats,”, “BioreclamationIVT, MSE00BRAINMZA)” for “BioreclamationIVT, RAT00BRAINMZA)”, “the mouse” for “the rat”

[8] = human liver mitochondria 0.30 mg protein/mL, 37° C.
[9] = Ca2+ flux, HEK293, read-out: 5-HT2A EC50

5-HT2A, sequence (P28223 whole entry): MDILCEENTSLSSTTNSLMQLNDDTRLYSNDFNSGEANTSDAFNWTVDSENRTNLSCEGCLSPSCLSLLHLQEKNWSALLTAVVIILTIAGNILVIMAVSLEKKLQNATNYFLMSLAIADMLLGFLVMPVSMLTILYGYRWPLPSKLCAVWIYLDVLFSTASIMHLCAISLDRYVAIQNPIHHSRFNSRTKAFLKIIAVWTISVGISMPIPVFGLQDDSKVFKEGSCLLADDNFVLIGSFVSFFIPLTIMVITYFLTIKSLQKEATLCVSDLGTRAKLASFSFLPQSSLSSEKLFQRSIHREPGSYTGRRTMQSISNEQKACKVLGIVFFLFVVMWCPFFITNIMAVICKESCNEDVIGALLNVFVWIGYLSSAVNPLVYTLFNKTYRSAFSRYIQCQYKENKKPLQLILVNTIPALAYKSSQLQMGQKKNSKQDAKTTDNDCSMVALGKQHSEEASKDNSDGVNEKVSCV
T2 sequence (P41595 whole entry, species assumed): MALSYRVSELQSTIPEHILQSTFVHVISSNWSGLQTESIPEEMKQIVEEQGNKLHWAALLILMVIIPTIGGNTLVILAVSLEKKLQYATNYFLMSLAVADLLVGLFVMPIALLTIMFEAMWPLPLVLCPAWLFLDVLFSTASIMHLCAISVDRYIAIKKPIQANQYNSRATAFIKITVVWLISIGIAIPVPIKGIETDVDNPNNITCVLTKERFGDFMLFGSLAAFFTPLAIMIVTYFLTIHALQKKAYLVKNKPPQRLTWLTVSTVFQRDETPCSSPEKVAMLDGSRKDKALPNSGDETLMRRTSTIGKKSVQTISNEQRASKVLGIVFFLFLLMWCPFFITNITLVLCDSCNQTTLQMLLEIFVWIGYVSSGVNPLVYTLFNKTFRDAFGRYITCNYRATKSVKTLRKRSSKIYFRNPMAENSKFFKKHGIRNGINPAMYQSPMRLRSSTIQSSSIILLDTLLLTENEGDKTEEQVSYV

## NCCc1c[nH]c2cccc(O)c12 [Compound 1, 3-(2-aminoethyl)-1H-indol-4-ol]
[1]
  EC50: 92600 nM
  5-HT1A % Act @ Max Dose: 49.9%
[2]
  EC50: 33.4 nM
[2]; Ca2+ flux
  5-HT2A % Act @ Max Dose: 99.2%
[3]
  half-life: 34.3 min
  microsomal CLint: 40.4 µL/min/mg
[4]
  half-life at 1 µM: 10 min
  % Compound Remaining (after 120 min): 0.0%
[5]
  Remaining (t = 60 min): 51.1%
  half-life: 70.5 min
  microsomal CLint: 32.8 µL/min/mg
[6]
  EC50: 151 nM
  5-HT2B % Act @ Max Dose: 83.98%
[7]
  half-life at 1 µM: 12.6 min
  % Compound Remaining (after 120 min): 0.0%

## COc1ccc2[nH]cc(CCN(C)C)c2c1 [Compound 5-MeO-DMT, reference compound]
[1]
  5-HT1A % Act @ Max Dose: 78.8%
[4]
  t1/2: 14.4 min
  % Compound Remaining (after 120 min): 0.3%
[5]; [8]
  CLint(MAO): 43.6 µL/min/mg
  t1/2: 52.9 min
[5]
  stability in the presence of MAO (in words): rapidly metabolized by MAO
  Remaining (t = 60 min): 47.1%
[6]
  5-HT2B % Act @ Max Dose: 20.5%
[7]
  t1/2: >289.1 min
  % Compound Remaining (after 120 min): 91.2%

## Oc1cccc2[nH]cc(CCNCCF)c12 [Compound 7, 3-(2-((2-fluoroethyl)amino)ethyl)-1H-indol-4-ol]
[1]
  EC50: > 100000 nM
  5-HT1A % Act @ Max Dose: 42.13%
[2]
  EC50: 47.2 nM
[2]; Ca2+ flux
  5-HT2A % Act @ Max Dose: 86.8%
[3]
  half-life: 77 min
  microsomal CLint: 18 µL/min/mg
[4]
  half-life at 1 µM: > 289 min
  % Compound Remaining (after 120 min): 77.1%
[5]
  Remaining (t = 60 min): 85.2%
  half-life: > 145 min
  microsomal CLint: < 15.9 µL/min/mg
[6]
  EC50: 375 nM
  5-HT2B % Act @ Max Dose: 20.76%
[7]
  half-life at 1 µM: 177 min
  % Compound Remaining (after 120 min): 61.8%

## C=CCNCCc1c[nH]c2cccc(O)c12 [Compound 23, 3-(2-(allylamino)ethyl)-1H-indol-4-ol]
[3]
  half-life: 118 min
  microsomal CLint: 11.8 µL/min/mg
[4]
  half-life at 1 µM: 126 min
  % Compound Remaining (after 120 min): 52.4%
[5]
  Remaining (t = 60 min): 83.5%
  half-life: > 145 min
[7]
  half-life at 1 µM: 127 min
  % Compound Remaining (after 120 min): 49.6%

## C#CCNCCc1c[nH]c2cccc(O)c12 [Compound 24, 3-(2-(prop-2-yn-1-ylamino)ethyl)-1H-indol-4-ol]
[1]
  EC50: > 100000 nM
  5-HT1A % Act @ Max Dose: −3.14%
[2]
  EC50: 20.1 nM
[2]; Ca2+ flux
  5-HT2A % Act @ Max Dose: 96.07%
[3]
  half-life: 92.4 min
  microsomal CLint: 15 µL/min/mg
[4]
  half-life at 1 µM: 92.4 min
  % Compound Remaining (after 120 min): 41.9%
[5]
  Remaining (t = 60 min): 87.2%
  half-life: > 145 min
  microsomal CLint: < 15.9 µL/min/mg
[6]
  EC50: 88.3 nM
  5-HT2B % Act @ Max Dose: 48.26%
[7]
  half-life at 1 µM: 97.3 min
  % Compound Remaining (after 120 min): 40.5%

## CNCCc1c[nH]c2ccc(F)c(O)c12 [Compound 26, 5-fluoro-3-(2-(methylamino)ethyl)-1H-indol-4-ol]
[1]
  EC50: 3490 nM
  5-HT1A % Act @ Max Dose: 74.21%
[2]
  EC50: 21 nM
[2]; Ca2+ flux
  5-HT2A % Act @ Max Dose: 86.9%
[3]
  half-life: 0.9 min
  microsomal CLint: 1520 µL/min/mg
[4]
  half-life at 1 µM: 2.2 min
  % Compound Remaining (after 120 min): 0%
[5]
  Remaining (t = 60 min): 0.1%
  half-life: 6.3 min
  microsomal CLint: 369 µL/min/mg
[6]
  5-HT2B % Act @ Max Dose: 13.87%
[7]
  half-life at 1 µM: 1.7 min
  % Compound Remaining (after 120 min): 0%

## Oc1c(F)ccc2[nH]cc(CCNC3CC3)c12 [Compound 27, 3-(2-(cyclopropylamino)ethyl)-5-fluoro-1H-indol-4-ol]
[1]
  EC50: 1230 nM
  5-HT1A % Act @ Max Dose: 84.02%
[2]; [9]
  EC50: 7.37 nM
[3]
  half-life: 19.8 min
  microsomal CLint: 70 µL/min/mg
[4]
  half-life at 1 µM: 15.1 min
  % Compound Remaining (after 120 min): 0.4%
[5]
  stability in the presence of MAO (in words): intermediate stability
  Remaining (t = 60 min): 32.1%
  half-life: 36.2 min
  microsomal CLint: 63.9 µL/min/mg
[6]
  EC50: 9.53 nM
  5-HT2B % Act @ Max Dose: 36.08%
[7]
  half-life at 1 µM: 69.6 min
  % Compound Remaining (after 120 min): 29.4%

## CCNCCc1c[nH]c2cc(F)cc(O)c12 [Compound 29, 3-(2-(ethylamino)ethyl)-6-fluoro-1H-indol-4-ol]
[1]
  5-HT1A % Act @ Max Dose: 16.22%
[2]
  EC50: 17.4 nM
[2]; Ca2+ flux
  5-HT2A % Act @ Max Dose: 80.80%
[3]
  half-life: > 145 min
  microsomal CLint: < 9.6 µL/min/mg
[4]
  half-life at 1 µM: 113 min
  % Compound Remaining (after 120 min): 51.9%
[5]
  Remaining (t = 60 min): 99.1%
  half-life: > 145 min
  microsomal CLint: < 15.9 µL/min/mg
[6]
  5-HT2B % Act @ Max Dose: 12.18%
[7]
  half-life at 1 µM: 59.9 min
  % Compound Remaining (after 120 min): 29.9%

## NCCc1c[nH]c2ccc(F)c(O)c12 [Compound 30, 3-(2-aminoethyl)-5-fluoro-1H-indol-4-ol]
[1]
  EC50: 5220 nM
  5-HT1A % Act @ Max Dose: 73.4%
[2]; [9]
  EC50: 4.06 nM
[3]
  half-life: 9.3 min
  microsomal CLint: 149 µL/min/mg
[4]
  half-life at 1 µM: 3.9 min
  % Compound Remaining (after 120 min): 0.1%
[5]
  Remaining (t = 60 min): 0.0%
  half-life: 6.5 min
  microsomal CLint: 356 µL/min/mg
[6]
  EC50: 4.62 nM
  5-HT2B % Act @ Max Dose: 95.46%
[7]
  half-life at 1 µM: 6.4 min
  % Compound Remaining (after 120 min): 0%
